Source: ChEMBL document CHEMBL5465560, “Selectivity Literature for EUbOPEN Chemogenomic Library” (2024)
Blank lines part the entries; values can stand above or below the compound they belong to.

What was measured:
[1] = molecular target: Prostaglandin G/H synthase 1 (Homo sapiens) (UniProt P23219); test: Selectivity interaction (Panel of non-epigenetic targets (kinases, GPCRs, ion channels, and transporters, Eurofins) ) EUB0000271b PTGS1; settings: at 1 µM
Activated CDC42 kinase 1 = Activated CDC42 kinase 1 (Homo sapiens, UniProt Q07912); settings: at 10 µM
Chain of Activated CDC42 kinase 1 (Q07912 whole entry, looked up): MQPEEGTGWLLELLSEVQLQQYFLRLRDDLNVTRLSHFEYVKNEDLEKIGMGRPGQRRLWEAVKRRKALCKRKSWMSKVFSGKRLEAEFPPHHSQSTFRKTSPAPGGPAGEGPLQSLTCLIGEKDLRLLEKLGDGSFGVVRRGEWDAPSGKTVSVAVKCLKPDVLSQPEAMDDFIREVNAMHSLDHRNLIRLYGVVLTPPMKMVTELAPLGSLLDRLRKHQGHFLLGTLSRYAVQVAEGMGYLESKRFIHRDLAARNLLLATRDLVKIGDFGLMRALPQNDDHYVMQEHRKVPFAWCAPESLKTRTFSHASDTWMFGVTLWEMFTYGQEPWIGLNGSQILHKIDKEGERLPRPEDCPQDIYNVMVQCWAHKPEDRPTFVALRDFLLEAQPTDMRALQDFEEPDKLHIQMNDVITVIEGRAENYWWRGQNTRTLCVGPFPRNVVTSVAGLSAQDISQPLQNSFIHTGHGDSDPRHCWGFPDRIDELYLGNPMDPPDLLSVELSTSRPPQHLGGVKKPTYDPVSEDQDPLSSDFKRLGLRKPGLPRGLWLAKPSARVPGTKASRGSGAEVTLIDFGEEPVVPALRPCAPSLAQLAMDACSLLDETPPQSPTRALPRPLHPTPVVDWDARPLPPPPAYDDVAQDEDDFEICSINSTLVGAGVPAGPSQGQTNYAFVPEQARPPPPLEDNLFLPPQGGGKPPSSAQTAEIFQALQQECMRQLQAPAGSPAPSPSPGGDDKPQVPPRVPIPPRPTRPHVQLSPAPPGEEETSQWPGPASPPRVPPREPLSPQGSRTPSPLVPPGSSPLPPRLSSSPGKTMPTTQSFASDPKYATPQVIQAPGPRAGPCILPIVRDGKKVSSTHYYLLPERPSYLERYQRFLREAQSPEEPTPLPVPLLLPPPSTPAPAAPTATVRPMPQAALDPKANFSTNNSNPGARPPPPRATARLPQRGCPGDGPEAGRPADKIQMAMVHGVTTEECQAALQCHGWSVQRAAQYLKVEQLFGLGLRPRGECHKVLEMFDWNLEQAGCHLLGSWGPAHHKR

[2] = molecular target: T1, Homeodomain-interacting protein kinase 4 (Homo sapiens) (UniProt Q8NE63); test: Selectivity interaction (KinomeScan (DiscoverX)) EUB0001079a HIPK4; settings: at 1 µM
T1 sequence (whole entry): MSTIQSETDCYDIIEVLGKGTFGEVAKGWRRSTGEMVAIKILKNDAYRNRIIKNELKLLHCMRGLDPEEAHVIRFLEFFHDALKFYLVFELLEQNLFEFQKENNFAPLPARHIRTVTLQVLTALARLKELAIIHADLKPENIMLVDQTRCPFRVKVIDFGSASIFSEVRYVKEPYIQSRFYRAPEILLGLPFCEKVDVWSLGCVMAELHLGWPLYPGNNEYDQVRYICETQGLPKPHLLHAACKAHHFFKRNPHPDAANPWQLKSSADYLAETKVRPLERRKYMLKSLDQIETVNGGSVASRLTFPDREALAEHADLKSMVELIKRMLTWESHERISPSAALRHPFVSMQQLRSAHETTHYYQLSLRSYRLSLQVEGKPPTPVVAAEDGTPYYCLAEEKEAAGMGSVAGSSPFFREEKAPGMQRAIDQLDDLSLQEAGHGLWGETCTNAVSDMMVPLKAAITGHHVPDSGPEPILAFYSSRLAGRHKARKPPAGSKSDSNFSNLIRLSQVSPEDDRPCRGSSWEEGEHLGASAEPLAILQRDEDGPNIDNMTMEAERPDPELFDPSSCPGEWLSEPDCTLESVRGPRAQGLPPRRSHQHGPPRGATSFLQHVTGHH

[3] = molecular target: Bone morphogenetic protein receptor type-1B (Homo sapiens, UniProt O00238); test: Selectivity interaction (KinomeScan (DiscoverX)) EUB0000045b BMPR1B
Chain of Bone morphogenetic protein receptor type-1B (O00238 whole entry): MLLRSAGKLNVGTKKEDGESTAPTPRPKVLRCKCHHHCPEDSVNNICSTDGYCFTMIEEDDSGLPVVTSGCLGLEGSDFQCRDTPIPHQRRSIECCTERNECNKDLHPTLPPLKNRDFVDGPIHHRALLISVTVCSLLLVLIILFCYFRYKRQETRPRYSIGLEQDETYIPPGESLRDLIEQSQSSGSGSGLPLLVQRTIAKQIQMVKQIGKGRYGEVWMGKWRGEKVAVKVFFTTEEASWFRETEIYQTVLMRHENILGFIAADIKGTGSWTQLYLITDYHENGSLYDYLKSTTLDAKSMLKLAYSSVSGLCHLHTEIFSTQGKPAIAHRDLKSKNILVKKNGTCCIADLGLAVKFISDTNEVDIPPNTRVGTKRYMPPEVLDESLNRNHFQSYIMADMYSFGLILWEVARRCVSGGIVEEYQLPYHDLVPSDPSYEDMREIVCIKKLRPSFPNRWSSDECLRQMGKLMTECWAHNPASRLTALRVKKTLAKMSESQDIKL

[4] = molecular target: T2, Mitogen-activated protein kinase kinase kinase kinase 2 (Homo sapiens) (UniProt Q12851); test: Selectivity interaction (ActivX KiNativ screen (kinase selectivity in THP-1 cell lysates)) EUB0000639a MAP4K2; format: subcellular; settings: lysate, at 1 µM
T2 sequence (whole entry): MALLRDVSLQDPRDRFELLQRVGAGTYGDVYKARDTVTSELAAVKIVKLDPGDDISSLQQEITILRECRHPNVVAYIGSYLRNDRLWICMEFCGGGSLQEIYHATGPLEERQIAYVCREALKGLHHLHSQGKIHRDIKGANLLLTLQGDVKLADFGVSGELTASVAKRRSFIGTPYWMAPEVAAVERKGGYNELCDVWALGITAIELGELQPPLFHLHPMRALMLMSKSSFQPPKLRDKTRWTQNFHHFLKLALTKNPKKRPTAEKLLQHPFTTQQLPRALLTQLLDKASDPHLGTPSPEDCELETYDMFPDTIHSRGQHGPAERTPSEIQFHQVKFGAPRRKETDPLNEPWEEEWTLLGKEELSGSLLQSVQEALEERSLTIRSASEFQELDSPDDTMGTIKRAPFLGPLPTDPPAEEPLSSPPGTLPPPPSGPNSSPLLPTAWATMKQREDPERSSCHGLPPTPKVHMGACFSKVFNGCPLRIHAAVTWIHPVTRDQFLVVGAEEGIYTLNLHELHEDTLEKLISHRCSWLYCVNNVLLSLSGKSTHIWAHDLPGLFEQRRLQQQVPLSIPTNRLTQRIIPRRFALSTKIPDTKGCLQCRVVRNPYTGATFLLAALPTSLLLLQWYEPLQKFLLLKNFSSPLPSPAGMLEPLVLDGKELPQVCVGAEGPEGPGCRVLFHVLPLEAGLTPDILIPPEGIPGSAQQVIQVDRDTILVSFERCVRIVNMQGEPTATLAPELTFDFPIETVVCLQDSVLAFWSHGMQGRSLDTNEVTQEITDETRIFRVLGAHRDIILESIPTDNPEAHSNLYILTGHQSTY

Peregrin (Homo sapiens) = molecular target: T3, Peregrin (Homo sapiens) (UniProt P55201); test: Selectivity interaction (Bromodomain panel (DSF asssay)) EUB0000270b BRPF1
T3 sequence (whole entry): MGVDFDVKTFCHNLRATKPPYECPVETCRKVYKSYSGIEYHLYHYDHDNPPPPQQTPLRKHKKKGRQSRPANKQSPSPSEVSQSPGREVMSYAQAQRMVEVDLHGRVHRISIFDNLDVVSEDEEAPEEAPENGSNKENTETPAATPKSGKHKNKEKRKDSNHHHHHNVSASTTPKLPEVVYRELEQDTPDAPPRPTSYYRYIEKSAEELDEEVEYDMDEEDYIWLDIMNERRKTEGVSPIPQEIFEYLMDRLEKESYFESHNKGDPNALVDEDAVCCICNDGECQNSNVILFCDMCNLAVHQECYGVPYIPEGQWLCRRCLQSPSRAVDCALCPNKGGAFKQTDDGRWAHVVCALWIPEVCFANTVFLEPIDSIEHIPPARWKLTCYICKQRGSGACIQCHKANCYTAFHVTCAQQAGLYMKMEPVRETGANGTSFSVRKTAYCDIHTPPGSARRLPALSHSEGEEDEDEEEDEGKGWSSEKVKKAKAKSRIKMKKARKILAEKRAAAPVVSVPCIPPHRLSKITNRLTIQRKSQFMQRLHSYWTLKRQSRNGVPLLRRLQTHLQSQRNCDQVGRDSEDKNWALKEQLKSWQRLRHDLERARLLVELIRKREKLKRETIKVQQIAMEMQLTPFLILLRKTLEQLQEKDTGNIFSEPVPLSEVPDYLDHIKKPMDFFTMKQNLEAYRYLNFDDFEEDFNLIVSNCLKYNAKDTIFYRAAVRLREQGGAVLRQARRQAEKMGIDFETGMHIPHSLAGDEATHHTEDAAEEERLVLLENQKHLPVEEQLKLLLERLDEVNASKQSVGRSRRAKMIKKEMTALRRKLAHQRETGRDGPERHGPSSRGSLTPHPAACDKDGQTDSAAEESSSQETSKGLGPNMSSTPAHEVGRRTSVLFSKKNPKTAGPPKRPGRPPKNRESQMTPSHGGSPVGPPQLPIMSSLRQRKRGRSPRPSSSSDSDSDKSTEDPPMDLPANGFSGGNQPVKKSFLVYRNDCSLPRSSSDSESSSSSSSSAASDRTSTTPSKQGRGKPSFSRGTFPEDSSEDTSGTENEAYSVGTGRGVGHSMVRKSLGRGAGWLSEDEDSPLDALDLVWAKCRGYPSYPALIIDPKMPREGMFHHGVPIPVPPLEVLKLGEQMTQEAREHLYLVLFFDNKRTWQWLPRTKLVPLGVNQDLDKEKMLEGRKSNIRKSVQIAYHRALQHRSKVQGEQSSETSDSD

[5] = molecular target: Cyclin-dependent kinase 11B (Homo sapiens) (UniProt P21127); test: Selectivity interaction (KinomeScan (DiscoverX)) EUB0001049a CDK11B; settings: at 1 µM
Chain of Cyclin-dependent kinase 11B (Homo sapiens) (P21127 whole entry): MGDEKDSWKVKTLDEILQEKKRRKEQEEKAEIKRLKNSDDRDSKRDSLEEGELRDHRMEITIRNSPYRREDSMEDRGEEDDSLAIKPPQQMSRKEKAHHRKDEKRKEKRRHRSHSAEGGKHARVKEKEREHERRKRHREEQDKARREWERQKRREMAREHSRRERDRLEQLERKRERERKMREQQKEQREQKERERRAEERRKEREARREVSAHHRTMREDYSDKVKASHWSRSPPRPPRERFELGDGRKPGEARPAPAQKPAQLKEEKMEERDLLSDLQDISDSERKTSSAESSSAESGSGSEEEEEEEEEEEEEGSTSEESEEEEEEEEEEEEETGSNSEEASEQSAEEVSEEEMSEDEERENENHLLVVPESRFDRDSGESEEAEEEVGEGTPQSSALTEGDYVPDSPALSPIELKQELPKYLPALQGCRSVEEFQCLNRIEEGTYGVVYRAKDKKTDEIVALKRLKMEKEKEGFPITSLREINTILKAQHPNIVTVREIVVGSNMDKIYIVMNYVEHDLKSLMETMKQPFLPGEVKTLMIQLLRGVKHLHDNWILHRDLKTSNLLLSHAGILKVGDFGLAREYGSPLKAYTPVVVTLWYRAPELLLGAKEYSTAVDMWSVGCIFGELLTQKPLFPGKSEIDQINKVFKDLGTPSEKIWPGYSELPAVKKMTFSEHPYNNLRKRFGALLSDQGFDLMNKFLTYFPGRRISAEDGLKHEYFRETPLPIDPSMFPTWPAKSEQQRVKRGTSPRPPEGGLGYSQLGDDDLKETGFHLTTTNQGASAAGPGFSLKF

Chain of Prostaglandin G/H synthase 1 (Homo sapiens) (P23219 whole entry): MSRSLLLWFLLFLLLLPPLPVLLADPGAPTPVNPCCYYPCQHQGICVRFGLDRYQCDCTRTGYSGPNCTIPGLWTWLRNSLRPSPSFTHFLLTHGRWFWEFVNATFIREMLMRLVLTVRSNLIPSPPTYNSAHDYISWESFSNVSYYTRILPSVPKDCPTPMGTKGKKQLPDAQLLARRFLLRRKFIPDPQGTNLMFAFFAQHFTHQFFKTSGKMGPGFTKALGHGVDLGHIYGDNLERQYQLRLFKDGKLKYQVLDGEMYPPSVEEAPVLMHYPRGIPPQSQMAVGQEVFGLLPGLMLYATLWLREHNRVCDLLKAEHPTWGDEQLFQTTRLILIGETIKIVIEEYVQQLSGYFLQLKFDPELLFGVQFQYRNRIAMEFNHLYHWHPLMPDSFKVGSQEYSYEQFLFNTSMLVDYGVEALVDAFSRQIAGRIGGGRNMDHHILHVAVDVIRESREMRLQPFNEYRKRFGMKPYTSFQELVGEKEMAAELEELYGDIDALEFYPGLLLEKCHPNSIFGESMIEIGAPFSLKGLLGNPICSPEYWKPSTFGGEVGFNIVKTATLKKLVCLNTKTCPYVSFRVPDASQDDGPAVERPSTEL

Compound: Cc1cc(C)cc([C@@H]2c3cc(C)ccc3NC(=O)CN2C(=O)c2ccc(Br)s2)c1
% of inhibition [1]: 17%

% of control (Activated CDC42 kinase 1): 100%
Compound: CCN(CC)CCCCNc1ncc2cc(-c3cc(OC)cc(OC)c3)c(NC(=O)NC(C)(C)C)nc2n1

Compound: Nc1cnc(N2CCc3cc(S(=O)(=O)Nc4c(F)cc(Cl)cc4F)cc(N4CCCC4=O)c32)nc1 [TP-020n]
% of control [2]: 100%

Compound: C=CC(=O)Nc1cc(-n2c(=O)ccc3cnc4ccc(-c5ccc(NS(C)(=O)=O)cc5)cc4c32)ccc1C
% of control ([3]; at 1 µM): 100%
% of control ([3]; at 10 µM): 80%

% of inhibition [4]: -10.5%
Compound: CC[C@@H]1[C@H](F)C(=O)N[C@@H]1COc1nccc2cc(C(N)=O)c(OC)cc12 [ZIMLOVISERTIB]

dTM (Peregrin (Homo sapiens)): -1.98 K
Compound: Cc1cc(CN)cc(C)c1-c1ncn(C)c1-c1cncn1C

Compound: COc1cc(Nc2nc(C)cc(-c3cnn4nc(OC)ccc34)n2)cc(C(F)(F)F)c1
% of control [5]: 100%
